Entries after “also recorded” stand apart in the source; their conditions may differ. Peptide text beside a SMILES is read from it. * marks the point of attachment. AMC = Cc1cc(=O)oc2cc(N*)ccc12; Bz = O=C(c1ccccc1)*
What was measured:
thrombin [1] = target: T1, thrombin (Homo sapiens, UniProt P00734); experiment: Detection of thrombin activity on chromogenic substrate coated onto cellulose matrix; format: biochemical; conditions: 1 mL of 2 mg/mL substrate sprayed on matrix; EVICEL thrombin applied; 30 sec at room temperature; dihydrochloride
T1 construct: purchased EVICEL® fibrin sealant kit product code 3905
Method: S-2238 chromogenic thrombin substrate ((H-D-Phenylalanyl-L-pipecolyl-L-arginine-p-nitroaniline dihydrochloride) which is available from Chromgenix, Instrumentation Laboratory Company, Bedford, Mass., USA catalog number: 82032439), 25 mg, was dissolved in 12.5 mL of water. The resulting concentration was 2 mg/mL (25 mg in 12.5 mL). 1 mL of 2 mg/mL of the chromogenic substrate was sprayed onto one side of a white cellulose matrix (paper towel Scott C-Fold) approx. 4 in×6 cm in using the EVICEL® ASA tip (product code 3921S). The other side was not coated or sprayed with the substrate.
A kit of EVICEL® (product code 3905) was thawed in a 37° C. water bath for 5 min. […] This was repeated on the substrate coated side and also applied in duplicate on the non-substrate coated side.
As a control, thrombin was applied to the non-coated side of the matrix and no color changed was observed.

thrombin [2] = target: T1, thrombin; experiment: Thrombin activity on chromogenic substrate in solution (dip stick standard tubes); format: biochemical; conditions: 0.2 mL of 2 mg/mL substrate + 1.8 mL water, about 2 min at room temperature
Method: A “dip stick” can be dabbed onto a tissue surface that is suspected of bleeding (FIG. 2). The end of the dip stick can then be placed into a solution containing the visualization agent (chromogenic substrate). The amount of the thrombin present in the dip stick is determined by comparison with a standard curve obtained by running similar tests with known thrombin concentrations.
For example, 0.2 mL of the 2 mg/mL chromogenic substrate was combined with 1.8 mL of water in a […] in 2 borosilicate glass tubes. The solution was gently mixed to distribute the substrate. A third tube was filled with 2 mL of water as an untreated control. To one of the tubes with the diluted substrate, 100 uL of 1000 IU/mL thrombin was added and 10 uL was added to the other tube. After about 2 min at room temperature, a photo was captured of the tubes.
The tube with water is shown as a reference. The intensity of the color change reflected the amount of thrombin.

thrombin [3] = target: T1, thrombin; experiment: Detection of chromogenic substrate product in plasma activated by thromboplastin reagent; format: biochemical; conditions: 0.4 mL PNP + 0.2 mL thromboplastin reagent with calcium + 0.2 mL of 2 mg/mL substrate; room temperature
Method: Plasma has a background color (straw color). To test whether the product of the chromogenic substrate can be detected in plasma, 0.4 mL pooled normal plasma (PNP from George King Biomedical) was activated by a thromboplastin reagent (0.2 mL, Neoplastin CL plus product number 00375) with calcium to allow thrombin generation.
Either 0.2 mL saline (as a control) or 0.2 mL of 2 mg/mL of the chromogenic substrate was added to the tube and mixed on the tube rocker.
Evidence of clot formation was present after approx. 30 sec at room temperature. In view of the presence of fibrinogen in plasma, complete clot formation, i.e. solid/stable clot, occurred at approx. 2 min at room temperature.

thrombin [4] = target: T1, thrombin; experiment: Detection of thrombin on a surface (cellulose matrix) with fluorogenic substrates; format: biochemical; conditions: approx. 60 min after spraying; 365 nm flashlight only; after moving the matrix out of its original position
Method: 2 mL solutions of 0, 10 IU/mL and 100 IU/mL thrombin in saline (none, and low and high thrombin) were prepared using a stock solution of EVICEL® thrombin of about 1000 IU/mL. 1 mL of each thrombin dilution was sprayed onto white cellulose matrix (paper towel Scott C-Fold) in a designated area.
Immediately a defined amount of thrombin substrate, prepared as follows, was sprayed on the thrombin and coated cellulose matrix and fluorescence of the mixture was evaluated. The substrate stock solutions were diluted 1:10 in TBS (using 900 uL TBS and 100 uL of stock substrate solution). 1.0 mL of the diluted stock solution (1:10 dilution) was sprayed across all three regions of the cellulose matrix coated with thrombin at different levels.
Images of cellulose matrix under various lighting conditions (with various light sources) were captured and the response was compared for different amounts of thrombin and substrates. The Experiments were carried out at room temperature.

thrombin [5] = target: T1, thrombin; experiment: Detection of thrombin in solution with fluorescent substrates; format: biochemical
Method: 1. 2 mL of 0, 10 IU/mL and 100 IU/mL thrombin in saline (none, low, and high thrombin) was prepared in duplicates and tubes were labeled accordingly. Stock of EVICEL® thrombin is about 1000 IU/mL.
2. A defined amount of thrombin substrate was added to thrombin solutions as follows and fluorescence of the mixture was evaluated. The substrate stock solutions were diluted 1:10 in Tris Buffered saline (TBS) buffer (180 uL TBS and 20 uL of stock substrate solution). TBS buffer comprises 20 mM Tris and 150 mM sodium chloride, and is adjusted to pH 7.4. 0.05 mL of the diluted stock solution (1:10 dilution) was added to the 2 mL of thrombin prepared in step 1, mixed at room temperature, and incubated for about 3 mins.
3. Images of tubes were captured while shining with light (using various light emitting sources) and responses were compared for different amounts of thrombin.

thrombin [6] = target: T1, thrombin; experiment: Detection of thrombin in solution, repeated with higher amounts of substrate; format: biochemical; set-up: key to fluorescence signal, relative rank: +++: strongest fluorescence signal; ++: signal was greater; +: fluorescence signal was lowest; conditions: 100 uL at 5 mg/mL in DMSO [500 ug total substrate], 100 IU/mL thrombin, approx. 5 min
Method: 100 IU/mL of thrombin was used.
To 1.0 mL of 100 IU/mL thrombin in saline, 100 uL of Sigma substrate at 5 mg/mL in DMSO was added [500 ug total substrate].
To 1.0 mL of 100 IU/mL thrombin in saline, 100 uL of HTI substrate diluted in TBS at 0.25 mg/mL (50 uL HTI manufacture's stock and 1.5 mL TBS, i.e. 1:30 dilution) was added [25 ug total substrate].
To 1.0 mL of 100 IU/mL thrombin in saline, 10 uL of HTI manufacture's stock (7.5 mg/mL in DMSO) was added [75 ug total substrate]
Images of tubes were captured under various lighting conditions (using various light sources) and responses were compared.
The experiments were carried out at room temperature.

thrombin [7] = experiment: In vivo detection of thrombin at bleeding site, canine model with liver and spleen abrasions
Method: In this in vivo study, the ability to detect thrombin on a surface in a live animal after creating a bleeding defect was assessed in a canine model with liver and spleen abrasions.
Diffuse/oozing bleeding abrasion defect was created using cautery tip cleaning pad.
0.5 mL of Sigma fluorogenic substrate (Stock solution 5 mg/mL concentration in DMSO protected from light) was sprayed onto bleeding site and visualized with flashlight (356 nm) 2-3 min after application.

thrombin [8] = target: T1, thrombin; experiment: Detection of thrombin generated in plasma with fluorogenic substrates; format: biochemical
Method: (§1) Pooled normal plasma (PNP) was purchased from George King Biomedical was thawed at 37 C for 5 min. 0.5 mL of PNP was aliquoted into 3-10×75 mm borosilicate glass tubes. To each to glass tube, 0.10 mL stock fluorescent substrate or 0.10 mL stock TBS was added. Tubes were labeled accordingly.
(§2) 1.0 mL of PT reagent (Diagnostica Stago, STA Neoplastine Cl Plus containing calcium) was dispensed into the three tubes.
Images of tubes were captured while using shining light (using various light sources) and response was compared for different substrates.

pooled normal plasma = experiment: Clotting of pooled normal plasma with PT reagent in presence of substrate; format: biochemical; conditions: 0.5 mL PNP + 0.10 mL stock (5 mg/mL in DMSO) + 1.0 mL PT reagent; room temperature
Method: as §1, §2
The blank/TBS control clotted in approx. 10 sec (as expected for a PT clotting time).

SMILES | coloration on substrate coated side of cellulose matrix (thrombin [1]) | coloration of tube (thrombin [2]; 10 uL of 1000 IU/mL thrombin) | coloration of tube (thrombin [2]; 100 uL of 1000 IU/mL thrombin) | yellow coloration/hue of clotted plasma compared with the saline control (thrombin [3]) | fluorescence on the surface underneath the cellulose matrix (thrombin [4]) | time within which all of the substrate was cleaved (thrombin [5]; 100 IU/mL thrombin, no change in intensity between 3 min and 60 min) [min] | fluorescence (thrombin [5]; approx. 3 min, ambient overhead lighting and 365 nm flashlight, 100 IU/mL thrombin) | color change (thrombin [5]; approx. 3 min, ambient overhead lighting only, thrombin 100, 10 and 0 IU/mL) | fluorescence (thrombin [5]; approx. 60 min, 365 nm flashlight only, 100 IU/mL thrombin) | fluorescence signal, relative rank (thrombin [6]; 365 nm flashlight only) | fluorescence signal (thrombin [6]; ambient overhead lighting and 365 nm flashlight) | fluorescence signal at bleeding site (thrombin [7]; 0.5 mL of 5 mg/mL in DMSO sprayed onto bleeding site, flashlight (356 nm) 2-3 min after application, no exogenous thrombin added) | detection of bleeding in a liver abrasion model (thrombin [7]; canine, sprayed onto bleeding site) | color change in plasma (thrombin [8]; 5 min after combining PNP, substrate and PT reagent, ambient overhead lighting only) | fluorescence signal in plasma (thrombin [8]; approx. 5 min, 365 nm flashlight only, 0.10 mL stock (Sigma 5 mg/mL in DMSO; HTI 0.25 mg/mL in TBS)) | fluorescence in plasma (thrombin [8]; approx. 5 min, ambient overhead lighting and 365 nm flashlight, 0.10 mL stock (Sigma 5 mg/mL in DMSO)) | time sample remained fluid before clotting (pooled normal plasma)
Cl.Cl.NC(N)=NCCC[C@H](NC(=O)[C@@H]1CCCCN1C(=O)[C@H](N)Cc1ccccc1)C(=O)Nc1ccc([N+](=O)[O-])cc1 [S-2238, H-D-Phenylalanyl-L-pipecolyl-L-arginine-p-nitroaniline dihydrochloride] | yellow coloration (dark streaks) was evident; also recorded: change in coloration was evident | faint yellow coloration | yellow coloration | significantly stronger | – | – | – | – | – | – | – | – | – | – | – | – | –
Cc1cc(=O)oc2cc(NC(=O)[C@H](CCCN=C(N)N)NC(=O)[C@@H](NC(=O)[C@H](Cc3ccccc3)NC(=O)c3ccccc3)C(C)C)ccc12 [Sigma substrate] (Bz-Phe-Val-Arg-{AMC}) | – | – | – | – | spots of fluorescence could be seen | ≤ 3 | displaying fluorescence | no color change observed | displaying fluorescence | +++ | strongest | could be detected | enabled detection of bleeding | no color change was observed | strong fluorescence signal | strong fluorescence | approx. 3 min

— patent US20220193272A1, “Bleeding Detection Method” (Ethicon, Inc., priority 2020, published 2022)
